The values below come from paper PMC4539421, “A Novel Microbisporicin Producer Identified by Early Dereplication during Lantibiotic Screening” (BioMed Research International, 2015).

Assay [1] relates to L100 S. aureus ATCC6538P. Briefly: MIC by broth microdilution, S. aureus. The class given is cell-based, Staphylococcus aureus. Particulars: broth microdilution assay [27]. As to the method:
(§1) Broth and mycelium screening extracts from the F.I.I.R.V. collection of Actinoallomurus strains isolated according as above were screened in liquid microplate assays for their antimicrobial activity on S. aureus 209 ATCC 6538P (L100) and to its L-form cells (L3751), as described in detail in [7]. In brief, S. aureus 209 ATCC 6538P (L100) and its L-form cells (L3751) were maintained at −80°C in Nutrient Broth (Difco) to which 20% (v/v) glycerol was added. EBH/S supplemented with 5% (v/v) horse serum was used as medium. For the wild-type inoculum, 10 μL of extracts previously dissolved in DMSO : H2O 1 : 9 (v/v) were added to 1 × 10^5 CFU/mL in 90 μL of culture broth. For L-form cells, aliquots of liquid cultures grown overnight in EBHI/S to O.D.620 nm = 0.2 were used as inoculum. Incubation time was 24 h at 35°C in air, and then growth inhibition was measured at O.D.620 nm. Reference actagardine, planosporicin, microbisporicin, mersacidin, and nisin standards were used and MIC levels were determined by broth microdilution assay as recommended by the National Committee for Clinical Laboratory Standards. To identify β-lactam producers, antimicrobial activity versus S. aureus 209 ATCC 6538P (L100) was measured in a liquid microplate assay after adding the following cocktail of β-lactamases: Penicillase Type I from Bacillus cereus (Sigma P0389), 0.001 U/mL; Penicillase Type II from Bacillus cereus (Sigma P6018), 0.002 U/mL; Penicillase type III from Enterobacter cloacae (Sigma P4399), 0.0025 U/mL; and Penicillase type IV from Enterobacter cloacae (Sigma P4524), 0.5 U/mL. To identify glycopeptide producers, antimicrobial activity versus S. aureus 209 ATCC 6538P (L100) was measured in a liquid microplate assay after adding 2 mg/mL of Ac-Lys-D-alanyl-D-alanine (Chem-Impex International Inc., IL).
(§2) Antimicrobial activity was determined by broth microdilution assay according to standard guidelines. The growth media utilized to determine the MIC were cation-adjusted Difco Mueller Hinton Broth (MHB) for Staphylococci, Enterococci, and E. coli, Todd Hewitt Broth (THB) for Streptococci, and RPMI-1640 medium (RPMI) for C. albicans. Typically, a twofold serial dilution of the test compound was performed in a sterile 96-well microplate inoculated with 10^4 CFU/mL of the test strain in the appropriate medium. The microplate was then incubated for 18–24 h at 35°C.
On the technique in general: Broth dilution looks for growth in wells or tubes with falling amounts of substance.

Assay [2] concerns L3751 S. aureus L-form. Briefly: MIC by broth microdilution, S. aureus L-form. The class given is cell-based, Staphylococcus aureus. As to conditions: broth microdilution assay [27]; L-form cells. The method, then: Staphylococcus aureus 209 ATCC 6538P (L100) were purchased from the American Type Culture Collection (ATCC; Manassas VA). L-form cells (L3751) were prepared from L100 by exposure to 100 U of penicillin in Enterococcal Brain Heart Infusion/S (EBH/S) supplemented with 5% NaCl, 5% sucrose, and 10% horse serum as previously described. L-forms were then cultured on similarly supplemented brain heart infusion agar containing no antibiotic. S. aureus Smith ATCC19636 (L819), Streptococcus pyogenes C203 ATCC12384 (L49), and other clinical isolates (S. aureus L1400, Enterococcus faecalis L559, Enterococcus faecalis Van A L560, Escherichia coli SKF12140 L47, and Candida albicans SKF2270 L145) were maintained in the Fondazione Istituto Insubrico Ricerca per la Vita (F.I.I.R.V.) culture collection (L collection) at Gerenzano, Italy.
as §1
(§3) Antimicrobial activity was determined by broth microdilution assay according to standard guidelines. […]

The test system of assay [3] is L1400 S. aureus MRSA. The assay can be described thus: MIC by broth microdilution, MRSA. Type of assay: cell-based, Staphylococcus aureus. Particulars: broth microdilution assay [27]; MRSA clinical isolate. The method, then:
as §1, §2

Assay [4] concerns L49 S. pyogenes. Briefly: MIC by broth microdilution, S. pyogenes. The class given is cell-based, Streptococcus pyogenes. Particulars: broth microdilution assay [27]. As to the method:
as §1, §3

The test system of assay [5] is L47 E. coli. Type of assay: cell-based, Escherichia coli. Particulars: broth microdilution assay [27]. As to the method:
as §1, §3

The subject of assay [6] is L145 C. albicans. Type of assay: cell-based, Candida albicans. Particulars: broth microdilution assay [27]. As to the method: as §1, §3
Assay [7] concerns S. aureus. The assay can be described thus: Bioautography of HPLC fractions, S. aureus. As to conditions: 1 mL HPLC fractions dried, resuspended in 100 μL 10% DMSO, 10 μL tested. The class given is cell-based, Staphylococcus aureus. As to the method: (§4) For bioautography, fractions (1 mL, eluting at 1 mL/min) from the HPLC column were collected, dried, and resuspended in 100 μL aqueous solution at 10% (v/v) DMSO. 10 μL were tested for antimicrobial activity. UV and mass spectra of molecules present in the active fractions were compared with those collected in the ABL database, which contains data on approximately 30,000 microbial metabolites collected from literature and patents since 1950 [20, 28], and in the commercially available Antibase (http://wwwuser.gwdg.de/~hlaatsc/antibase.htm).

For assay [8], the system named is S. aureus L-form L3751. The assay can be described thus: Bioautography of HPLC fractions, S. aureus L-form. Type of assay: cell-based, Staphylococcus aureus. As to conditions: 1 mL HPLC fractions dried, resuspended in 100 μL 10% DMSO, 10 μL tested. As to the method: as §4

For orientation: MIC means the least concentration at which growth counts as inhibited.

No end group written: not given here.

As to Actagardine, the MIC in assay [1] is 32 µg/mL; in assay [2] it was over 128 µg/mL; in assay [3], 16 µg/mL; in assay [4] it was 2 µg/mL; in assay [5], over 128 µg/mL; in assay [6], over 128 µg/mL.
For the substance “Mersacidin (CTFTLPGGGGVCTLTSECIC; also: lantibiotic mersacidin, thioether rings not placed; UniProt P43683 49-68, looked up) [lantibiotic standard]”, the minimal inhibitory concentration (MIC) was 4 µg/mL in assay [1], 64 µg/mL in assay [2] and 8 µg/mL in assay [3].
As to Microbisporicin, the MIC in assay [1] is at most 0.13 µg/mL; in assay [2], over 128 µg/mL; in assay [3] it was at most 0.13 µg/mL; in assay [4], under 1 µg/mL; in assay [5] it was over 128 µg/mL; in assay [6] it was over 128 µg/mL.
On to Microbisporicin A2, for which the “Growth inhibition by HPLC fraction (bioautography)” value in assay [7] is recorded as “inhibits the microbial growth”; in assay [8], “but not its L-form”.
As for Planosporicin, the MIC in assay [1] is 2 µg/mL; in assay [2], over 128 µg/mL; in assay [3], 16 µg/mL; in assay [4], under 1 µg/mL; in assay [5], over 128 µg/mL; in assay [6], over 128 µg/mL.
